# Reference: US20060088897A1, “Modulators” (priority 2003, published 2006)
# “Also recorded” adds a separate entry of the source.
# B1: CSF: growth factor for Bac1 macrophages; activates Cdc42Hs and Rac1 (protein, UniProt P07141 33-552, looked up)
# Macrophage colony-stimulating …: KEVSEHCSHMIGNGHLKVLQQLIDSQMETSCQIAFEFVDQEQLDDPVCYLKKAFFLVQDIIDETMRFKDNTPNANATERLQELSNNLNSCFTKDYEEQNKACVRTFHETPLQLLEKIKNFFNETKNLLEKDWNIFTKNCNNSFAKCSSRDVVTKPDCNCLYPKATPSSDPASASPHQPPAPSMAPLAGLAWDDSQRTEGSSLLPSELPLRIEDPGSAKQRPPRSTCQTLESTEQPNHGDRLTEDSQPHPSAGGPVPGVEDILESSLGTNWVLEEASGEASEGFLTQEAKFSPSTPVGGSIQAETDRPRALSASPFPKSTEDQKPVDITDRPLTEVNPMRPIGQTQNNTPEKTDGTSTLREDHQEPGSPHIATPNPQRVSNSATPVAQLLLPKSHSWGIVLPLGELEGKRSTRDRRSPAELEGGSASEGAARPVARFNSIPLTDTGHVEQHEGSSDPQIPESVFHLLVPGIILVLLTVGGLLFYKWKWRSHRDPQTLDSSVGRPEDSSLTQDEDRQVELPV
# Assays:
# Type in all cases: cell-based
# N1E-115 cells [1] = assay: Microinjection of peptides into partially serum starved N1E-115 cells, phalloidin staining and confocal microscopy of cell morphology; conditions: for effect on formation of lamellipodia, filopodia or neurites concluded from microinjection: FIG. 8A; for cell morphology after peptide microinjection: peptide injected at 10 μg/ml, cells serum starved 2-4 h, FIG. 7A, 8A
# Protocol: Cells are starved for 2-3 h and then either injected with peptides (10 μg/ml) or exposed to peptides with bioporter reagent. Cells are incubated for a further 2 h before being stained with phalloiden and examined by confocal microscopy (as described in the materials and methods section). (A) The upper cells is injected with αP1 (a), or all cells injected with αP1*(b), or exposed to αP2 with bioporter reagent (c). […] Results are expressed as means+/−SEM of 3 experiments (n=333-426 cells). […] (D) Cells are exposed to bioporter reagent with αP2 and after 6 h double stained with αPAK and vinculin antibodies; (a) Vinculin/αPAK, (b) Vinculin and (c) αPAK. Bar=10 μM. Control bars are with IgG with bioporter/microinjection.
# (§1) Cells are starved for 2-3 h and then injected with peptides. Cells are then incubated for 2 h before being stained with phalloiden and examined by confocal microscopy (as described in the materials and methods section). (A) Cells are injected with IgG (a), with αP2 (b), with βP2 (c) and γP2 (d). Bar=10 μM. (B) Cells are exposed to bioporter with peptides and presence of neurites, pronounced filopodia and pronounced lamellipodia/ruffles scored (definitions as in FIG. 7). (C) Cells are either exposed to bioporter reagent coated peptides (αP2 and βP2) and then IGF or serum starvation used to activate cells. For γP2 cells are injected with peptide and stimulated with serum. Filopodia and lamellipodia are scored by using time-lapse phase contrast microscopy. +/−SEM of 3 experiments (n=900). Control peptide is taken from the kinase domain and common to the three PAK isoforms.
# Cells are plated out at 1.0×10^5 cells in 1 ml in a 35 mm dish containing 2 laminin coated coverslips. The coverslips are first marked with a grid using a fine permanent marker and then coated with laminin and incubated overnight in DMEM, 10% FCS, 1% AB/AM. The media is replaced with serum free media (DMEM, 1% AB/AM) and the cells starved for 1 hour so that they flattened and are easier to inject. The peptides are injected at 10 μg/ml in PBS, Rat IgG at 1 mg/ml is added to act as a marker for injected cells.
# The cells are injected using an Eppendorf microinjection apparatus on an Axioplan inverted microscope equipped with a heated stage maintained at 37° C. and a 5% CO2 chamber. Humidity is maintained by a dish of sterile water inside the CO2 chamber. Cells in a grid square are injected and positive injection checked visually at the time of injection or after fixation and staining for the injected marker. After injection the cells are returned to the incubator for a further 2 hours. Giving a total time without serum of 4 hours.
# The only difference between these two peptides being that the latter peptide is phosphorylated on serine and this modification prevents it from binding Nck (Zhao et al., 1998). To investigate the effects of peptides we first serum starve the cells for 2-4 h to activate Cdc42Hs and Rac.
# N1E-115 cells [2] = assay: Axonal guidance towards IGF (preliminary experiments); conditions: unpublished data
# Description: In preliminary experiments we have also examined the effect of the PAK peptides on axonal guidance towards IGF in N1E-115 cells.
# N1E-115 cells [3] = assay: Cell guidance assay at Laminin/CSPG boundary (axonal guidance); conditions: for neurite morphology: serum starved cells, FIG. 9A
# Protocol: Effect of PAK peptides on neurite morphology. Cells are exposed to control peptide, αP 1*, αP2, βP2, or γP2 and neurite morphology assessed. (B) Cells are plated on coverslips that been treated to create a Laminin/CSGP boundary. After 6 h cells are examined for their ability to project neurites that crossed the substrate boundary. Cells exposed to bioporter coated peptides, (a) αP2, (b) βP2, and (c) γP2. […] Results are means+/−SEM (n=161-263). (C) Cells are exposed to peptides and after 6 h are scored for their ability to cross boundary from Laminin to CSPG.
# The coverslips are washed and sterilised and then coated in one of the following ways.
# A second layer of laminin is applied as a drop mixed with 1 μg/ml TRITC label. Coverslips are left for 1 hour at RT and then rinsed twice with sterile water before allowing to dry before use. (iii) Attractive/repulsive boundary. Slides are coated with CSPG 5 μg/ml for 1 hour at 37° C. in a humid chamber then rinsed once in sterile H2O and allowed to air dry before the drop of laminin at 10 μg/ml is applied to the centre of the coverslip and left for 1 hour at RT before rinsing twice in sterile water and allowing to dry before use. This coating is also done in reverse with the laminin applied first and then the tenascin or the CSPG applied second.
# The cells are then seeded onto the prepared coverslips at 2×10^5 cells in 1 ml in a 35 mm petri dish, in DMEM, 10% FCS, and 1% AB/AM. Cells are allowed to attach overnight. The media is then removed and the coverslips rinsed in serum free media and incubated overnight (18 h) in serum free media. After the starvation the cells are fixed and stained to show the morphology of the cells at the boundary. Only neurites expressing neurofilamant are scored.
# After 5 minutes, the cells are washed once with serum free DMEM media and then 1 ml of serum free DMEM is added to the tube containing the peptide and BioPorter mix it is vortexed gently before being added to the cells. The cells are incubated for 4 hours at 37° C. After the 4 hour incubation the cells are then incubated for a further 2 hours in 5% FCS DMEM or for cells undergoing a substrate guidance assay the 2 hour incubation is in serum free DMEM. The cells are fixed and stained.
# Neurofilament positive neurites are scored for how they respond to Laminin/CSPG boundary. […] However, neurites do have distinct morphologies (FIG. 9A). Thus α, β and γ PAK are not essential for neurite outgrowth.
# N1E-115 cells [4] = assay: Phase contrast time-lapse analysis of filopodia and lamellipodia formation in a gradient of IGF; conditions: followed for 60 min; FIG. 8C
# Protocol: as §1
# Time lapse microscopy is carried out on a heated stage (37° C.) in an atmosphere of humidified air and 5% CO2. Cells are video recorded using a, Axiovert 135 microscope, Palmix TM-6CN video camera and Sony-u-matic V0-5800 PS video recorder. Individual images are captured using Bio-rad COMOS software and manipulated with Adobe photoshop. Confocal microscopy is carried out using a LSM 410 Zeiss scanning microscope with 3 single line lasers at 488 nM (argon), 543 nM and 633 nM, (HeNe). […]
# Bac1 macrophages = assay: Time lapse / microinjection analysis of Bac1 macrophage morphology (CSF, LPA gradients, C3 toxin)
# Protocol: (A) Bac1 cells are grown (24 h) in four different ways and then stained with phalloidin to visualise F-actin. With serum alone (a), without CSF/serum (b), with CSF/serum (c), and with CSF alone (d). (B) Cells are starved of CSF for 24 h and then exposed to gradient of CSF (1.32 nM) through a needle. A time lapse sequence is shown over 30 min. (C) Bac1 macrophages are CSF/serum starved for 24 h and then exposed to a gradient of LPA through a needle. A time lapse sequence is shown over 10 min. (D) Bac1 macrophages starved for serum alone and then exposed to a gradient of CSF through a needle and LPA added to the medium. CSF is added in panel (b) followed by LPA. Panels c-f show process retraction on the side of the cell that is not protected by CSF. Arrows in (B) show the formation of filopodia. Arrows in (C) show process retraction. Bar=10 μM. […]
# Proteins purified from E. coli and C3 toxin are microinjected in 50 MM Tris pH 7.5, 50 mM NaCl, 5 mM MgCl2 using an Eppendorf microinjector and Axiovert microscope. Successful injection is determined visually at the time of injection and by use of IgG. […]
# Time lapse microscopy is carried out on a heated stage (37° C.) in an atmosphere of humidified air and 5% CO2. Cells are video recorded using a, Axiovert 135 microscope, Palmix TM-6CN video camera and Sony-u-matic V0-5800 PS video recorder. […]
Molecule,"effect on formation of lamellipodia, filopodia or neurites concluded from microinjection (N1E-115 cells [1])",cell morphology after peptide microinjection (N1E-115 cells [1]),decision making process of moving towards IGF (N1E-115 cells [2]),effect on axonal guidance towards IGF (N1E-115 cells [2]),ability to detect the Laminin/CSPG boundary (N1E-115 cells [3]; FIG. 9C),neurite morphology (N1E-115 cells [3]),formation of lamellipodia in response to IGF gradient (N1E-115 cells [4]),"neurites crossing over the Laminin/CSPG boundary (N1E-115 cells [3]; control approx. 10%, FIG. 9C)",formation of filopodia in response to IGF gradient (N1E-115 cells [4]),"protection from LPA mediated process collapse (Bac1 macrophages; CSF via needle, LPA added to medium after 1.5 min, FIG. 2D)","morphological response of Bac1 cells to a gradient of the factor (Bac1 macrophages; gradient through a needle, FIG. 2B, 2C)"
"SDSLDNEEKPPAPPLRMNSN [βP2, peptide derived from βPAK]",blocks lamellipodia formation,numerous filopodia along a newly formed leading edge with no lamellipodia,does slow down the decision making process,do not affect guidance,not affected,branched and spiky with lamellipodia and ruffles inhibited,inhibit,–,–,–,–
"SDNGELEDKPPAPPVRMSST [γP2, peptide derived from γPAK]",blocks filopodia formation,large fan-shaped lamellipodia with no filopodia,–,–,do not to recognize the boundary,smooth and flattened with fan shaped growth cones; also recorded: flattened growth cones and very few filopodia,–,60-70%,inhibit,–,–
B1,–,–,–,–,–,–,–,–,–,can protect the process nearest to the source of CSF from LPA mediated process collapse,induces the formation of filopodia and lamellipodia
